Broadly, the IC50 is the midpoint of a concentration-inhibition curve. A low value points to greater potency in that assay. Broadly, the inhibition is the change of the read-out against control, counted positive when it falls. Lower therefore signals a weak effect.

SMILES strings stand for the structures.

For one series, the target named is T1, MAP kinase p38 (Homo sapiens, UniProt O15264+Q15759+Q16539+P53778). As to the kind of experiment: Inhibitory activity against mitogen-activated protein kinase p38 at 10 e-4 to 10 e-8 M concentration. Type of series: protein assay.
Take `COc1ccc(CNc2cc(-c3[nH]c(SC)nc3-c3ccc(F)cc3)ccn2)cc1`: the IC50 was determined as 790 nM.

`CSc1nc(-c2ccc(F)cc2)c(-c2ccnc(NCCc3ccccc3)c2)[nH]1` showed an IC50 of 240 nM.

Turning to `CSc1nc(-c2ccc(F)cc2)c(-c2ccnc(Nc3ccccc3)c2)[nH]1`, the IC50 was determined as 130 nM.

The compound `Fc1ccc(-c2[nH]c(SCc3ccccc3)nc2-c2ccnc(NCc3ccccc3)c2)cc1` had an IC50 of 1420 nM.

Take `CSc1nc(-c2ccc(F)cc2)c(-c2ccnc(N(C)Cc3ccccc3)c2)[nH]1`: the IC50 is 8700 nM.

The next series concerns the target T1, MAP kinase p38. The series is described as follows: Inhibitory activity against TNF-alpha release in PBM cells. Type of series: functional, cell-based.
As to `CSc1nc(-c2ccc(F)cc2)c(-c2ccnc(O)c2)[nH]1`, the IC50 is 3100 nM.

As for `CCCn1c(SC)nc(-c2ccc(F)cc2)c1-c1ccnc(NC(C)=O)c1`, the IC50 amounted to 490 nM.

In the case of `C[S+]([O-])c1ccc(CSc2nc(-c3ccc(F)cc3)c(-c3ccnc(Cl)c3)[nH]2)cc1` (centres undefined), the concentration for half-maximal inhibition (IC50) came to 12000 nM.

Compound `COc1ccc(CNc2cc(-c3[nH]c(SCc4ccccc4)nc3-c3ccc(F)cc3)ccn2)cc1` gave an IC50 of 21000 nM.

Regarding `COc1cc(-c2[nH]c(SC)nc2-c2ccc(F)cc2)ccn1`, the IC50 came out at 1900 nM.

With `CSc1nc(-c2ccc(F)cc2)c(-c2ccnc(Cl)c2)[nH]1`, the IC50 stood at 2200 nM.

`CSc1nc(-c2ccnc(O)c2)c(-c2ccc(F)cc2)n1C` came in with an IC50 of 31300 nM.

`COc1ccc(C(=O)Nc2cc(-c3c(-c4ccc(F)cc4)nc(SC)n3C)ccn2)cc1` registered an IC50 of 640 nM.

As to `Fc1ccc(-c2nc(SCc3ccccc3)[nH]c2-c2ccnc(Cl)c2)cc1`, the IC50 worked out at 60000 nM.

`COc1ccc(CNc2cc(-c3[nH]c(SC)nc3-c3ccc(F)cc3)ccn2)cc1`: the IC50 amounted to 640 nM.

Take `CSc1nc(-c2ccc(F)cc2)c(-c2ccnc(NCCc3ccccc3)c2)[nH]1`: the IC50 came out at 350 nM.

Compound `CSc1nc(-c2ccc(F)cc2)c(-c2ccnc(Nc3ccccc3)c2)[nH]1` registered an IC50 of 340 nM.

In turn, `Fc1ccc(-c2[nH]c(SCc3ccccc3)nc2-c2ccnc(NCc3ccccc3)c2)cc1` had a concentration for half-maximal inhibition (IC50) of 3200 nM.

The compound `CCCn1c(SC)nc(-c2ccc(F)cc2)c1-c1ccnc(NCC)c1` showed a concentration for half-maximal inhibition (IC50) of 430 nM.

On to `CCCn1c(SC)nc(-c2ccc(F)cc2)c1-c1ccnc(N)c1`, for which the IC50 worked out at 5400 nM.

As to `CSc1nc(-c2ccc(F)cc2)c(-c2ccnc(N(C)Cc3ccccc3)c2)[nH]1`, the IC50 was found to be 4600 nM.

For the compound `C[S+]([O-])c1ccc(CSc2nc(-c3ccc(F)cc3)c(-c3ccncc3)[nH]2)cc1` (centres undefined), the IC50 is 1100 nM.

The target of the next series is T2, CYP1A2 (Homo sapiens, UniProt P05177).
T2 sequence (P05177 whole entry): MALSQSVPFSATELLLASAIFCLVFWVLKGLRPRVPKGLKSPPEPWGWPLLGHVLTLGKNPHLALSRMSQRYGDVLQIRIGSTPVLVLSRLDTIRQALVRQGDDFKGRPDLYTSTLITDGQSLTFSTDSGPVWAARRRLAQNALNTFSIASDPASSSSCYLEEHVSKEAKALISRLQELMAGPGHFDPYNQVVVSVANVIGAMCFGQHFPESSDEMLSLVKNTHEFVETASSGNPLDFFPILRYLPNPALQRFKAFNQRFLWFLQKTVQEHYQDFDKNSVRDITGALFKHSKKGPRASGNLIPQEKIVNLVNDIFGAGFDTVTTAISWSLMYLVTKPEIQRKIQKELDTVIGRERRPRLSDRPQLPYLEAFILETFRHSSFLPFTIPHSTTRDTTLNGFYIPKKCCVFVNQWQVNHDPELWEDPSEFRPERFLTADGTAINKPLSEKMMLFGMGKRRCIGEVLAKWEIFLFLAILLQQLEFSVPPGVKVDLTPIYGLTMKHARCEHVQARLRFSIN
The series is described as follows: Inhibition of Cytochrome P450 1A2 at 10 uM. It is filed as ADME.
Regarding `C[S+]([O-])c1ccc(-c2nc(-c3ccncc3)c(-c3ccc(F)cc3)[nH]2)cc1` (centres undefined) [SB-203580], testing at 10 µM gave an inhibition of 61%.

As for `CSc1nc(-c2ccc(F)cc2)c(-c2ccnc(Cl)c2)[nH]1`, the inhibition at 10 µM was determined as 92.6%.

Compound `CSc1nc(-c2ccc(F)cc2)c(-c2ccnc(NC(C)c3ccccc3)c2)[nH]1` (centres undefined) had an inhibition at 10 µM of 66.7%.

`C[S+]([O-])c1ccc(CSc2nc(-c3ccc(F)cc3)c(-c3ccncc3)[nH]2)cc1` (centres undefined) had an inhibition at 10 µM of 8.4%.

The target in the next series is T1, MAP kinase p38. As to the kind of experiment: Inhibitory activity against induction of IL-1-beta release in PBMCs. Type of series: functional.
Compound `CSc1nc(-c2ccc(F)cc2)c(-c2ccnc(O)c2)[nH]1` returned an IC50 of 500 nM.

For `CCCn1c(SC)nc(-c2ccc(F)cc2)c1-c1ccnc(NC(C)=O)c1`, the half-inhibitory concentration (IC50) amounted to 120 nM.

On to `C[S+]([O-])c1ccc(CSc2nc(-c3ccc(F)cc3)c(-c3ccnc(Cl)c3)[nH]2)cc1` (centres undefined), for which the IC50 was determined as 2100 nM.

Compound `COc1ccc(CNc2cc(-c3[nH]c(SCc4ccccc4)nc3-c3ccc(F)cc3)ccn2)cc1` yielded a 50% inhibitory concentration (IC50) of 180 nM.

`COc1cc(-c2[nH]c(SC)nc2-c2ccc(F)cc2)ccn1`: the IC50 was found to be 150 nM.

As to `CSc1nc(-c2ccc(F)cc2)c(-c2ccnc(Cl)c2)[nH]1`, the half-maximal inhibitory concentration (IC50) was determined as 350 nM.

Consider `CSc1nc(-c2ccnc(O)c2)c(-c2ccc(F)cc2)n1C`, for which the IC50 turned out to be 7200 nM.

In turn, `COc1ccc(C(=O)Nc2cc(-c3c(-c4ccc(F)cc4)nc(SC)n3C)ccn2)cc1` registered a half-maximal inhibitory concentration (IC50) of 440 nM.

Compound `Fc1ccc(-c2nc(SCc3ccccc3)[nH]c2-c2ccnc(Cl)c2)cc1` displayed an IC50 of 1800 nM.

As for `COc1ccc(CNc2cc(-c3[nH]c(SC)nc3-c3ccc(F)cc3)ccn2)cc1`, the IC50 is 56 nM.

In turn, `CSc1nc(-c2ccc(F)cc2)c(-c2ccnc(NCCc3ccccc3)c2)[nH]1` registered an IC50 of 31 nM.

As to `CSc1nc(-c2ccc(F)cc2)c(-c2ccnc(Nc3ccccc3)c2)[nH]1`, the IC50 worked out at 30 nM.

`Fc1ccc(-c2[nH]c(SCc3ccccc3)nc2-c2ccnc(NCc3ccccc3)c2)cc1` came in with an IC50 of 200 nM.

`CCCn1c(SC)nc(-c2ccc(F)cc2)c1-c1ccnc(NCC)c1`: the half-inhibitory concentration (IC50) amounted to 150 nM.

Take `CCCn1c(SC)nc(-c2ccc(F)cc2)c1-c1ccnc(N)c1`: the concentration for half-maximal inhibition (IC50) is 500 nM.

The compound `CSc1nc(-c2ccc(F)cc2)c(-c2ccnc(N(C)Cc3ccccc3)c2)[nH]1` showed an IC50 of 2700 nM.

In the case of `C[S+]([O-])c1ccc(CSc2nc(-c3ccc(F)cc3)c(-c3ccncc3)[nH]2)cc1` (centres undefined), the IC50 is 380 nM.

The target in the next series is CYP2C9 (Homo sapiens, UniProt P11712). As to the kind of experiment: Inhibition of Cytochrome P450 2C9 at 10 uM. Type of series: ADME.
Sequence of CYP2C9 (P11712 whole entry): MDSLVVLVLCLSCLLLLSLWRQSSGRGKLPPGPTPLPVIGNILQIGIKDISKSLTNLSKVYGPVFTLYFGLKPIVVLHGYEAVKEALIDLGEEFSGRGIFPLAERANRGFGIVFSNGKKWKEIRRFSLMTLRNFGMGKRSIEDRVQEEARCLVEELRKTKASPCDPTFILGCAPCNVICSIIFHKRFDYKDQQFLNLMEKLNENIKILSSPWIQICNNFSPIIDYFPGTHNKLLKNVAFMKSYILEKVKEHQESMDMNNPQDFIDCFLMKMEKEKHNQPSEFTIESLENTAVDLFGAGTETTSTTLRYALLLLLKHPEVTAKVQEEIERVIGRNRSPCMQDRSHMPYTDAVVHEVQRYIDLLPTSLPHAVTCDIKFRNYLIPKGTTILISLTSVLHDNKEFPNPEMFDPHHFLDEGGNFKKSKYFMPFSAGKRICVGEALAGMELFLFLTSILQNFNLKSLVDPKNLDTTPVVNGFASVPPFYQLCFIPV
`C[S+]([O-])c1ccc(-c2nc(-c3ccncc3)c(-c3ccc(F)cc3)[nH]2)cc1` (centres undefined) [SB-203580]: at 10 µM the inhibition was 75%.

The compound `CSc1nc(-c2ccc(F)cc2)c(-c2ccnc(Cl)c2)[nH]1` had an inhibition at 10 µM of 65%.

As for `CSc1nc(-c2ccc(F)cc2)c(-c2ccnc(NC(C)c3ccccc3)c2)[nH]1` (centres undefined), at 10 µM the inhibition was 79%.

`C[S+]([O-])c1ccc(CSc2nc(-c3ccc(F)cc3)c(-c3ccncc3)[nH]2)cc1` (centres undefined) came in with an inhibition at 10 µM of 72.7%.

A further series deals with CYP3A4 (Homo sapiens, UniProt P08684). The series is described as follows: Inhibition of Cytochrome P450 3A4 at 10 uM. It is filed as ADME.
Sequence of CYP3A4 (P08684 whole entry): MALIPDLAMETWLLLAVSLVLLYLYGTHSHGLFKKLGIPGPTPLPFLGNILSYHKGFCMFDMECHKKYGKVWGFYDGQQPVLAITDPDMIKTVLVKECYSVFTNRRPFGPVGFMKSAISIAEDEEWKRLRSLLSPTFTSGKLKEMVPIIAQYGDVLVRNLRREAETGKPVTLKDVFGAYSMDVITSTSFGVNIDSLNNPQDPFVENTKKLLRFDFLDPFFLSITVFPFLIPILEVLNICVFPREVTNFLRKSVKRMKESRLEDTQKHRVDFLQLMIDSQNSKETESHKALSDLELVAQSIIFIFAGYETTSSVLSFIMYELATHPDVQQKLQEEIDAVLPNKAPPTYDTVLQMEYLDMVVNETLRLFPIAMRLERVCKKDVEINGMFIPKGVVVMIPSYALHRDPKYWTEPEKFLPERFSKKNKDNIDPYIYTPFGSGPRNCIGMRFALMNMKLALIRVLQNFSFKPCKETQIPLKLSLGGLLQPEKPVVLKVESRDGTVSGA
`C[S+]([O-])c1ccc(-c2nc(-c3ccncc3)c(-c3ccc(F)cc3)[nH]2)cc1` (centres undefined) [SB-203580] had an inhibition at 10 µM of 61%.

The compound `CSc1nc(-c2ccc(F)cc2)c(-c2ccnc(Cl)c2)[nH]1` displayed an inhibition at 10 µM of 48.8%.

The compound `CSc1nc(-c2ccc(F)cc2)c(-c2ccnc(NC(C)c3ccccc3)c2)[nH]1` (centres undefined) yielded an inhibition at 10 µM of 79.2%.

Turning to `C[S+]([O-])c1ccc(CSc2nc(-c3ccc(F)cc3)c(-c3ccncc3)[nH]2)cc1` (centres undefined), the inhibition at 10 µM is 87.1%.

For another series, the target named is CYP2D6 (Homo sapiens, UniProt P10635). As to the kind of experiment: Inhibition of Cytochrome P450 2D6 at 10 uM. It is filed as ADME.
Sequence of CYP2D6 (P10635 whole entry): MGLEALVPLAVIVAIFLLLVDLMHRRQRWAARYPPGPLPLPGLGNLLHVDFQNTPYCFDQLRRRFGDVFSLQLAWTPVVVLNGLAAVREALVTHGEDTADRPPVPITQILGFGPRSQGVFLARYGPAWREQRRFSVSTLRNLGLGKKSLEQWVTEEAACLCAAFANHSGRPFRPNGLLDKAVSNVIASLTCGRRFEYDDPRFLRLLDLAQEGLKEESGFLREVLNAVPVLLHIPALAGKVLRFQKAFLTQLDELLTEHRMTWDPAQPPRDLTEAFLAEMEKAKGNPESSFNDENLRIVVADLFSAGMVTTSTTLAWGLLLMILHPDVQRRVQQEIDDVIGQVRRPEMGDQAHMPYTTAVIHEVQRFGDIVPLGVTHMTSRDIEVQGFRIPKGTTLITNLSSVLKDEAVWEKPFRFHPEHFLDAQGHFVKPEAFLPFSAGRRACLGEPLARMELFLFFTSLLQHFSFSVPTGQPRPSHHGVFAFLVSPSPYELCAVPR
`C[S+]([O-])c1ccc(-c2nc(-c3ccncc3)c(-c3ccc(F)cc3)[nH]2)cc1` (centres undefined) [SB-203580] yielded an inhibition at 10 µM of 67%.

Turning to `CSc1nc(-c2ccc(F)cc2)c(-c2ccnc(Cl)c2)[nH]1`, the inhibition at 10 µM came to 18.6%.

On to `CSc1nc(-c2ccc(F)cc2)c(-c2ccnc(NC(C)c3ccccc3)c2)[nH]1` (centres undefined), for which 10 µM produced 31.1% inhibition.

On to `C[S+]([O-])c1ccc(CSc2nc(-c3ccc(F)cc3)c(-c3ccncc3)[nH]2)cc1` (centres undefined), for which the inhibition at 10 µM came out at 71.8%.

The target of another series is CYP2C19 (Homo sapiens, UniProt P33261). As to the kind of experiment: Inhibition of Cytochrome P450 2C19 at 10 uM. It is filed as ADME.
Sequence of CYP2C19 (P33261 whole entry): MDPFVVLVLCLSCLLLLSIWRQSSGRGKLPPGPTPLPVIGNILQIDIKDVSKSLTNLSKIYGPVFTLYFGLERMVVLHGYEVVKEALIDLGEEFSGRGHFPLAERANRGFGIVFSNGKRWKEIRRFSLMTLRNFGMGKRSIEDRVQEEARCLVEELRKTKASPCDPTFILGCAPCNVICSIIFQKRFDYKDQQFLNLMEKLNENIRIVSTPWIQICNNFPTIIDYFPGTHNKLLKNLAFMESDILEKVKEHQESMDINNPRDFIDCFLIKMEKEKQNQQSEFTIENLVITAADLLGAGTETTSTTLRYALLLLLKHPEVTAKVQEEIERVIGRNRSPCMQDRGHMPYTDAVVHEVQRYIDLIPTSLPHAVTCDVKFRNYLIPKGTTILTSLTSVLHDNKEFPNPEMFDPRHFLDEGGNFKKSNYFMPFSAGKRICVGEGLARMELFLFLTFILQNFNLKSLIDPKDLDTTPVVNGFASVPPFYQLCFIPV
In the case of `C[S+]([O-])c1ccc(-c2nc(-c3ccncc3)c(-c3ccc(F)cc3)[nH]2)cc1` (centres undefined) [SB-203580], at 10 µM the inhibition was 85%.

In turn, `CSc1nc(-c2ccc(F)cc2)c(-c2ccnc(Cl)c2)[nH]1` yielded an inhibition at 10 µM of 41.4%.

Compound `CSc1nc(-c2ccc(F)cc2)c(-c2ccnc(NC(C)c3ccccc3)c2)[nH]1` (centres undefined) displayed an inhibition at 10 µM of 83.5%.

With `C[S+]([O-])c1ccc(CSc2nc(-c3ccc(F)cc3)c(-c3ccncc3)[nH]2)cc1` (centres undefined), at 10 µM the inhibition was 73.6%.

Values taken from ChEMBL document CHEMBL1145851, “Novel substituted pyridinyl imidazoles as potent anticytokine agents with low activity against hepatic cytochrome P450 enzymes” (J Med Chem, 2003).
